From US10301280B2 (Plexxikon Inc., priority 2012, dated 2019)

Experiments:
c-kit kinase = c-kit kinase (Homo sapiens (Human), UniProt P10721); assay: c-Kit biochemical assay (AlphaScreen); conditions: c-kit biochemical inhibitory activity
Procedure: Assays for biochemical cell-based activity of c-kit kinase are known in the art, for example, as described in U.S. Pat. Nos. 7,498,342 and 7,846,941, the disclosures of which are hereby incorporated by reference as it relates to such assays. The c-kit (or kinase domain thereof) is an active kinase in AlphaScreen. IC50 values are determined with respect to inhibition of c-Kit kinase activity, where inhibition of phosphorylation of a peptide substrate is measured as a function of compound concentration. Compounds to be tested were dissolved in DMSO to a concentration of 20 mM. These were diluted 30 μl into 120 μl of DMSO (4 mM) and 1 μl was added to an assay plate. These were then serially diluted 1:3 (50 μl to 100 μl DMSO) for a total of 8 points. Plates were prepared such that each kinase reaction is 20 μl in 1× kinase buffer (50 mM HEPES, pH 7.2, 5 mM MgCl2, 5 mM MnCl2, 0.01% NP-40, 0.2% BSA), 5% DMSO and 10 µM ATP. Substrate was 100 nM biotin-(E4Y)3 (Open Source Biotech, Inc.). C-kit kinase was at 0.1 ng per sample. After incubation of the kinase reaction for 1 hour at room temperature, 5 μl of donor beads (Streptavidin coated beads (Perkin Elmer Life Science) final concentration 1 μg/ml) in stop buffer (50 mM EDTA in 1× kinase buffer) was added, the sample was mixed and incubated for 20 minutes at room temperature before adding 5 μl of acceptor beads (PY20 coated beads (Perkin Elmer Life Science) final concentration 1 μg/ml) in stop buffer. The samples were incubated for 60 minutes at room temperature and the signal per well was read on AlphaQuest reader. Phosphorylated substrate results in binding of the PY20 antibody and association of the donor and acceptor beads such that signal correlates with kinase activity. The signal vs. compound concentration was used to determine the IC50.
Compounds were also tested using a similar assay with a 10-fold higher ATP concentration. For these samples, compounds to be tested were dissolved in DMSO to a concentration of 20 mM. These were diluted 30 μl into 120 μl of DMSO (4 mM) and 1 μl was added to an assay plate. These were then serially diluted 1:3 (50 μl to 100 μl DMSO) for a total of 8 points. Plates were prepared such that each kinase reaction is 20 μl in 1× kinase buffer (25 mM HEPES, pH 7.5, 2 mM MgCl2, 2 mM MnCl2, 0.01% Tween-20, 1 mM DTT, and 0.001% BSA), 5% DMSO and 100 µM ATP. Substrate was 30 nM biotin-(E4Y)10 (Upstate Biotech, Cat#12-440). C-kit kinase was at 1 ng per sample. After incubation of the kinase reaction for 1 hour at room temperature, 5 μl of donor beads (Streptavidin coated beads (Perkin Elmer Life Science) final concentration 10 μg/ml) in stop buffer (25 mM HEPES pH 7.5, 100 mM EDTA, 0.3% BSA) was added, the sample was mixed and incubated for 20 minutes at room temperature before adding 5 μl of acceptor beads (PY20 coated beads (Perkin Elmer Life Science) final concentration 10 μg/ml) in stop buffer. The samples were incubated for 60 minutes at room temperature and the signal per well was read on AlphaQuest or Envision reader (Perkin Elmer Life Science). Phosphorylated substrate results in binding of the PY20 antibody and association of the donor and acceptor beads such that signal correlates with kinase activity. The signal vs. compound concentration was used to determine the IC50.
The c-kit enzyme used in the above assay was either obtained from Cell Signaling Technology (Cat. #7754) or was prepared as follows: A plasmid encoding kit (DNA and encoded protein sequences shown below) was engineered using common polymerase chain reaction (PCR) methods. Complementary DNA cloned from various human tissues were purchased from Invitrogen, and these were used as substrates in the PCR reactions. Specific custom synthetic oligonucleotide primers were designed to initiate the PCR product, and also to provide the appropriate restriction enzyme cleavage sites for ligation with the plasmids. […]

[1] = system: BaF3-FL KIT D816V or BaF3-FL KIT V560G/D816V cell line; assay: Cell-based assays of c-Kit mutant kinase activity (cell growth, ATPlite); conditions: at least one of the c-kit cell assays of Example 26
Summary of the method: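 BaF3 cells dependent on full-length human KIT (D816V or V560G/D816V) seeded at 1×10^4 cells/well in RPMI with 10% FBS. Eight-point 1:3 dilutions from 10 μM top final (0.2% DMSO), 3 days at 37° C., 5% CO2. ATPlite luminescence gave IC50.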

Sequence of c-kit kinase (P10721 26-976): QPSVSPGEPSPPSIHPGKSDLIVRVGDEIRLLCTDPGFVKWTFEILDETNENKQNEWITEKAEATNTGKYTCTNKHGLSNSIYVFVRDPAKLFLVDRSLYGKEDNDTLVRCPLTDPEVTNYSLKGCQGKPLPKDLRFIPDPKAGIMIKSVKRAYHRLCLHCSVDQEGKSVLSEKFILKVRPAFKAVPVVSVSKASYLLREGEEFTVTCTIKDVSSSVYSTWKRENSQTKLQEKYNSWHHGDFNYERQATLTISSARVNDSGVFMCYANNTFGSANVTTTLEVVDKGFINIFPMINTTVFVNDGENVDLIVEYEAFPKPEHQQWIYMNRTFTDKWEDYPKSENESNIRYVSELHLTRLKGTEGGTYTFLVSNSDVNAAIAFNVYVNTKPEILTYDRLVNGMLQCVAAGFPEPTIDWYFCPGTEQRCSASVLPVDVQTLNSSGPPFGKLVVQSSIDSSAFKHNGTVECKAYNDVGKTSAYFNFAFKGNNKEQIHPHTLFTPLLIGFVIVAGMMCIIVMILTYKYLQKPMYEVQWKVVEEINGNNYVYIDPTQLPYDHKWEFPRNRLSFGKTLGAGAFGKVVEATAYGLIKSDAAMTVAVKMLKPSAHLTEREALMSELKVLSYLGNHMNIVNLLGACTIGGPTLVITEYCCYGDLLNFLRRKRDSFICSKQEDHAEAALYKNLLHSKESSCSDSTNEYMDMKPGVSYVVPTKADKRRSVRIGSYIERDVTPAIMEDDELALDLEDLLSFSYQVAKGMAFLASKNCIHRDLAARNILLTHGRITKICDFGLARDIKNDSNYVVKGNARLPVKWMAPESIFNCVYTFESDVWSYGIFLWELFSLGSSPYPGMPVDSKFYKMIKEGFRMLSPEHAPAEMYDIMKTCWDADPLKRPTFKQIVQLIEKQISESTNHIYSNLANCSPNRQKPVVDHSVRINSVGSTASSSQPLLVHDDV

## O=C(Nc1cnc2[nH]c(-c3ccccc3)cc2c1)c1ncccc1F [P-2012, 3-fluoro-N-(2-phenyl-1H-pyrrolo[2,3-b]pyridin-5-yl)pyridine-2-carboxamide]
c-kit kinase
  IC50: 0.0001 to 1 µM
[1]
  IC50: < 10 µM

## Cc1noc(C)c1C(=O)Nc1cnc2[nH]c(-c3ccccc3)cc2c1 [P-2013, 3,5-dimethyl-N-(2-phenyl-1H-pyrrolo[2,3-b]pyridin-5-yl)isoxazole-4-carboxamide]
c-kit kinase
  IC50: 0.0001 to 1 µM
[1]
  IC50: < 10 µM

## O=C(Nc1cnc2[nH]c(-c3ccccc3)cc2c1)c1cn[nH]n1 [P-2015, N-(2-phenyl-1H-pyrrolo[2,3-b]pyridin-5-yl)-2H-triazole-4-carboxamide]
c-kit kinase
  IC50: 1 to 10 µM
[1]
  IC50: < 10 µM

## Cc1cccnc1C(=O)Nc1cnc2[nH]c(-c3ccccc3)cc2c1 [P-2016, 3-methyl-N-(2-phenyl-1H-pyrrolo[2,3-b]pyridin-5-yl)pyridine-2-carboxamide]
c-kit kinase
  IC50: 1 to 10 µM
[1]
  IC50: < 10 µM

## Cc1cc(C(=O)Nc2cnc3[nH]c(-c4ccc(F)cc4)cc3c2)[nH]n1 [P-2019, N-[2-(4-fluorophenyl)-1H-pyrrolo[2,3-b]pyridin-5-yl]-3-methyl-1H-pyrazole-5-carboxamide]
c-kit kinase
  IC50: 10 to 200 µM
[1]
  IC50: < 10 µM

## Cc1n[nH]c(C(=O)Nc2cnc3[nH]c(-c4ccc(F)cc4)cc3c2)c1Cl [P-2023, 4-chloro-N-[2-(4-fluorophenyl)-1H-pyrrolo[2,3-b]pyridin-5-yl]-3-methyl-1H-pyrazole-5-carboxamide]
c-kit kinase
  IC50: 1 to 10 µM
[1]
  IC50: < 10 µM

## Cc1n[nH]c(C(=O)Nc2cnc3[nH]c(-c4ccc(F)cc4)cc3c2)c1C [P-2024, N-[2-(4-fluorophenyl)-1H-pyrrolo[2,3-b]pyridin-5-yl]-3,4-dimethyl-1H-pyrazole-5-carboxamide]
c-kit kinase
  IC50: 10 to 200 µM
[1]
  IC50: < 10 µM

## CC(=O)Nc1cccc(C(=O)Nc2cnc3[nH]c(-c4ccc(F)cc4)cc3c2)c1 [P-2026, 3-acetamido-N-[2-(4-fluorophenyl)-1H-pyrrolo[2,3-b]pyridin-5-yl]benzamide]
c-kit kinase
  IC50: 0.0001 to 1 µM
[1]
  IC50: < 10 µM

## O=C(Nc1cnc2[nH]c(-c3ccc(F)cc3)cc2c1)c1cccc2n[nH]cc12 [P-2027, N-[2-(4-fluorophenyl)-1H-pyrrolo[2,3-b]pyridin-5-yl]-2H-indazole-4-carboxamide]
c-kit kinase
  IC50: 0.0001 to 1 µM
[1]
  IC50: < 10 µM

## Cc1c[nH]nc1C(=O)Nc1cnc2[nH]c(-c3ccc(F)cc3)cc2c1 [P-2029, N-[2-(4-fluorophenyl)-1H-pyrrolo[2,3-b]pyridin-5-yl]-4-methyl-1H-pyrazole-3-carboxamide]
c-kit kinase
  IC50: 0.0001 to 1 µM
[1]
  IC50: < 10 µM

## CCn1nccc1S(=O)(=O)Nc1cnc2[nH]c(-c3ccc(F)cc3)cc2c1 [P-2030, 2-ethyl-N-[2-(4-fluorophenyl)-1H-pyrrolo[2,3-b]pyridin-5-yl]pyrazole-3-sulfonamide]
c-kit kinase
  IC50: 1 to 10 µM
[1]
  IC50: < 10 µM

## Cc1cc(C(=O)Nc2cnc3[nH]c(C4=CCN(C(=O)N5CCOCC5)CC4)cc3c2)n[nH]1 [P-2031, 5-methyl-N-[2-[1-(morpholine-4-carbonyl)-3,6-dihydro-2H-pyridin-4-yl]-1H-pyrrolo[2,3-b]pyridin-5-yl]-1H-pyrazole-3-carboxamide]
c-kit kinase
  IC50: 0.0001 to 1 µM
[1]
  IC50: < 10 µM

## Cc1n[nH]c(C(=O)Nc2cnc3[nH]ccc3c2)c1C [P-2032, 3,4-dimethyl-N-(1H-pyrrolo[2,3-b]pyridin-5-yl)-1H-pyrazole-5-carboxamide]
c-kit kinase
  IC50: 10 to 200 µM
[1]
  IC50: < 10 µM

## Cc1n[nH]c(C(=O)Nc2cnc3c(c2)cc(C2=CCN(C(=O)N4CCOCC4)CC2)n3S(=O)(=O)c2ccccc2)c1C [P-2033, N-[1-(benzenesulfonyl)-2-[1-(morpholine-4-carbonyl)-3,6-dihydro-2H-pyridin-4-yl]pyrrolo[2,3-b]pyridin-5-yl]-3,4-dimethyl-1H-pyrazole-5-carboxamide]
c-kit kinase
  IC50: 10 to 200 µM
[1]
  IC50: < 10 µM

## Cc1n[nH]c(C(=O)Nc2cnc3[nH]c(C4=CCN(C(=O)N5CCOCC5)CC4)cc3c2)c1C [P-2034, 3,4-dimethyl-N-[2-[1-(morpholine-4-carbonyl)-3,6-dihydro-2H-pyridin-4-yl]-1H-pyrrolo[2,3-b]pyridin-5-yl]-1H-pyrazole-5-carboxamide]
c-kit kinase
  IC50: 0.0001 to 1 µM
[1]
  IC50: < 10 µM

## Cc1n[nH]c(C(=O)Nc2cnc3[nH]c(C4=CCN(C(=O)N5CCOCC5)CC4)cc3c2)c1Cl [P-2036, 4-chloro-3-methyl-N-[2-[1-(morpholine-4-carbonyl)-3,6-dihydro-2H-pyridin-4-yl]-1H-pyrrolo[2,3-b]pyridin-5-yl]-1H-pyrazole-5-carboxamide]
c-kit kinase
  IC50: 0.0001 to 1 µM
[1]
  IC50: < 10 µM

## Cc1n[nH]nc1C(=O)Nc1cnc2[nH]c(-c3ccc(F)cc3)cc2c1 [P-2037, N-[2-(4-fluorophenyl)-1H-pyrrolo[2,3-b]pyridin-5-yl]-5-methyl-2H-triazole-4-carboxamide]
c-kit kinase
  IC50: 1 to 10 µM
[1]
  IC50: < 10 µM

## Cc1nn(C)cc1-c1cc2cc(NC(=O)c3[nH]nc(C)c3C)cnc2[nH]1 [P-2038, N-[2-(1,3-dimethylpyrazol-4-yl)-1H-pyrrolo[2,3-b]pyridin-5-yl]-4,5-dimethyl-1H-pyrazole-3-carboxamide]
c-kit kinase
  IC50: 0.0001 to 1 µM
[1]
  IC50: < 10 µM

## Cc1[nH]nc(C(=O)Nc2cnc3[nH]c(C4=CCN(C(=O)C5CC5)CC4)cc3c2)c1Cl [P-2039, 4-chloro-N-[2-[1-(cyclopropanecarbonyl)-3,6-dihydro-2H-pyridin-4-yl]-1H-pyrrolo[2,3-b]pyridin-5-yl]-5-methyl-1H-pyrazole-3-carboxamide]
c-kit kinase
  IC50: 0.0001 to 1 µM
[1]
  IC50: < 10 µM

## Cc1n[nH]c(C(=O)Nc2cnc3[nH]nc(C)c3c2)c1C [P-2040, 3,4-dimethyl-N-(3-methyl-1H-pyrazolo[3,4-b]pyridin-5-yl)-1H-pyrazole-5-carboxamide]
c-kit kinase
  IC50: 10 to 200 µM
[1]
  IC50: < 10 µM

## Cc1cc(C(=O)Nc2cnc3[nH]c(C4=CCN(C(=O)C5CC5)CC4)cc3c2)n[nH]1 [P-2042, N-[2-[1-(cyclopropanecarbonyl)-3,6-dihydro-2H-pyridin-4-yl]-1H-pyrrolo[2,3-b]pyridin-5-yl]-5-methyl-1H-pyrazole-3-carboxamide]
c-kit kinase
  IC50: 0.0001 to 1 µM
[1]
  IC50: < 10 µM

## Cc1[nH]nc(C(=O)Nc2cnc3[nH]c(C4=CCN(C(=O)C5CC5)CC4)cc3c2)c1C [P-2043, N-[2-[1-(cyclopropanecarbonyl)-3,6-dihydro-2H-pyridin-4-yl]-1H-pyrrolo[2,3-b]pyridin-5-yl]-4,5-dimethyl-1H-pyrazole-3-carboxamide]
c-kit kinase
  IC50: 0.0001 to 1 µM
[1]
  IC50: < 10 µM

## Cc1n[nH]c(C(=O)Nc2cnc(Nc3ccccc3)nc2)c1C [P-2044, N-(2-anilinopyrimidin-5-yl)-3,4-dimethyl-1H-pyrazole-5-carboxamide]
c-kit kinase
  IC50: 10 to 200 µM
[1]
  IC50: < 10 µM

## Cc1n[nH]c(C(=O)Nc2ccc(Nc3ccccc3)nc2)c1C [P-2045, N-(6-anilino-3-pyridyl)-3,4-dimethyl-1H-pyrazole-5-carboxamide]
c-kit kinase
  IC50: 10 to 200 µM
[1]
  IC50: < 10 µM

## O=C(Nc1cnc2[nH]c(-c3ccc(F)cc3)cc2c1)c1n[nH]c2ccccc12 [P-2046, N-[2-(4-fluorophenyl)-1H-pyrrolo[2,3-b]pyridin-5-yl]-1H-indazole-3-carboxamide]
c-kit kinase
  IC50: 10 to 200 µM
[1]
  IC50: < 10 µM
